PMC7956620 (Molecules, 2021)
Substitutions are numbered along the chain they refer to.

Assays:
Assay type in all cases: cell-based
Conditions in all cases: 100 µM chanoclavine, read-out: Inhibition Percentage (%)
[1] = biological target: T1, 5-HT3A receptor S136A mutant (Homo sapiens, UniProt P46098, S131A); assay: two-electrode voltage clamp, S136A mutant receptor in Xenopus oocytes
T1 construct: host or cells: Xenopus laevis oocytes injected with in vitro transcribed mRNA
T1 sequence (P46098 24-478 S131A): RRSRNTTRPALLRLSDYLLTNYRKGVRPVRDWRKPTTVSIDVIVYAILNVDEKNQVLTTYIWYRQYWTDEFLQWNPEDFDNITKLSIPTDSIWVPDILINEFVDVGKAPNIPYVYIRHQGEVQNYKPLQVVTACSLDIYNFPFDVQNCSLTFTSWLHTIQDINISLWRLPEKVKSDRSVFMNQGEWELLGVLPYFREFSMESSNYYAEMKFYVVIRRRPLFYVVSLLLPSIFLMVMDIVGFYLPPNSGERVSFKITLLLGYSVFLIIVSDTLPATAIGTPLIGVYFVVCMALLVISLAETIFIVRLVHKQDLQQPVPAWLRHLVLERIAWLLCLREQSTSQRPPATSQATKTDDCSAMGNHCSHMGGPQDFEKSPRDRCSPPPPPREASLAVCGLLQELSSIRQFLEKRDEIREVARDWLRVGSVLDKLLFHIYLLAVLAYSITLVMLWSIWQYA
Protocol: (§1) The site-directed mutation of one or two amino acids was performed using sense and antisense primers and Pfu polymerase (QuickChange Site-Directed Mutagenesis Kit; Agilent, Santa Clara, CA, USA) and amplified by polymerase chain reaction (PCR) to increase the target domain. After removing the existing methylated cDNA using Dpn Ⅰ, the PCR products were transformed into Escherichia coli strain DH5α. The cDNA of the 5-HT3A receptor was linearized by Xho Ⅰ at the end of the multi-cloning site, followed by transcription using T7 polymerase and a transcription kit (mMESSAGE mMACHINE T7 Transcription Kit; Thermo Fisher Scientific, Waltham, MA, USA). […]
(§2) To isolate oocytes, female Xenopus laevis were put into a container filled with ice and left for about one hour. […] When the Xenopus oocytes were ready for injection, 50 ng of mRNA was injected with a nanoliter injector (Drummond Scientific, Vernon Hills, IL, USA). […]
(§3) The oocytes in which mRNA was expressed during the incubation period allowed for the estimation of channel or receptor properties for observing drug and ligand potential interactions using a two-electrode voltage clamp (OC-725C; Warner Instruments, Hamden, CT, USA) and Digidata (1322A; Molecular Devices, Sunnyvale, CA, USA). […] The voltage and current electrodes were filled with 3 M KCl (0.3–0.7 MΩ) and analyzed at a −80 mV holding potential. […]

[2] = biological target: T2, 5-HT3A receptor F130A mutant (Homo sapiens, UniProt P46098, F125A); assay: two-electrode voltage clamp, F130A mutant receptor in Xenopus oocytes
T2 construct: host or cells: Xenopus laevis oocytes injected with in vitro transcribed mRNA
T2 sequence (P46098 24-478 F125A): T1 sequence (P46098 24-478 S131A) with F102A, A108S
Protocol: as §1, §2, §3

[3] = biological target: T3, 5-HT3A receptor N138A mutant (Homo sapiens, UniProt P46098, N133A); assay: two-electrode voltage clamp, N138A mutant receptor in Xenopus oocytes
T3 construct: host or cells: Xenopus laevis oocytes injected with in vitro transcribed mRNA
T3 sequence (P46098 24-478 N133A): T1 sequence (P46098 24-478 S131A) with A108S, N110A
Protocol: as §1, §2, §3

## CN[C@@H]1Cc2c[nH]c3cccc(c23)[C@H]1/C=C(\C)CO [chanoclavine]
[1]
  inhibition at 100 µM: 68.4 ± 6.1%
[2]
  inhibition at 100 µM: 9.36 ± 4.3%
[3]
  inhibition at 100 µM: -1.64 ± 6.2%
